Test results from the NIST ThermoML archive (doi:10.1021/acs.jced.7b01040).

Legend:
[1] = for vapor or sublimation pressure: Transpiration method; for Triple point temperature: DSC; for Normal melting temperature: DTA
[2] = Molar enthalpy of transition or fusion; settings: DSC

Oc1c(Br)c(Br)c(Br)c(Br)c1Br [pentabromophenol]
[1], Crystal 2
Settings	vapor or sublimation pressure [kPa]
322.9 K	1.9e-07
327.8 K	3.6e-07
332.8 K	6.7e-07
337.7 K	1.2e-06
342.6 K	2.3e-06
347.6 K	4.2e-06
352.6 K	7.8e-06
357.6 K	1.4e-05
362.6 K	2.7e-05
367.4 K	4.5e-05

Settings	Molar enthalpy of transition or fusion, [2] [kcal/mol]	Triple point temperature, [1] [K]
Crystal 1	4.42	496.3
Crystal 2	2.82	416.2

BrCC(Br)COc1c(Br)cc(Br)cc1Br (centres undefined) [1,3,5-tribromo(2,3-dibromopropoxy)benzene]
[1], Liquid
Settings	vapor or sublimation pressure [kPa]
322.9 K	1.9e-06
327.8 K	3.2e-06
332.7 K	5.5e-06
337.7 K	9.6e-06
342.7 K	1.7e-05
347.7 K	2.7e-05
352.7 K	4.3e-05
357.7 K	6.7e-05
362.7 K	0.00013
367.7 K	0.00016

Settings	Molar enthalpy of transition or fusion, [2] [kcal/mol]	Triple point temperature, [1] [K]
Crystal 1	0.612	313.7
Crystal 2	4.09	307.9

CCc1c(Br)c(Br)c(Br)c(Br)c1Br [pentabromoethylbenzene]
[1], Crystal
Settings	vapor or sublimation pressure [kPa]
322.7 K	3.7e-06
327.6 K	6.1e-06
332.6 K	1.04e-05
337.5 K	1.7e-05
342.4 K	3.2e-05
347.4 K	4.9e-05
352.3 K	8.3e-05
357.4 K	0.00013
362.3 K	0.00021
367.3 K	0.00032

Crystal
Settings	Molar enthalpy of transition or fusion [kcal/mol]	Normal melting temperature [°C]
[1]	–	135.8
[2]	3.2	–

Cc1c(Br)c(Br)c(C)c(Br)c1Br [1,2,4,5-tetrabromodimethylbenzene]
[1], Crystal
Settings	vapor or sublimation pressure [kPa]
322.8 K	2.4e-06
327.7 K	4.2e-06
332.7 K	7.2e-06
337.5 K	1.25e-05
342.5 K	2.1e-05
347.5 K	3.6e-05
352.4 K	5.9e-05
357.5 K	0.0001
362.4 K	0.00016
367.4 K	0.00025

Crystal
Settings	Molar enthalpy of transition or fusion [kcal/mol]	Normal melting temperature [°C]
[1]	–	254.2
[2]	5.71	–

Cc1c(Br)c(Br)c(Br)c(Br)c1Br [pentabromomethylbenzene]
[1], Crystal
Settings	vapor or sublimation pressure [kPa]
322.9 K	2.7e-07
327.8 K	5.1e-07
332.9 K	9.1e-07
337.6 K	1.62e-06
342.7 K	2.9e-06
347.6 K	5.5e-06
352.6 K	9e-06
357.6 K	1.5e-05
362.5 K	2.7e-05
367.6 K	4.2e-05

Crystal
Settings	Molar enthalpy of transition or fusion [kcal/mol]	Normal melting temperature [°C]
[1]	–	286
[2]	7	–
